How the values were obtained:
VEGF receptors = assay: cellular autophosphorylation assay, Chinese hamster ovary cells transfected with RTK gene; settings: transfected CHO cells
Description: (§1) In vivo activity requires drugs to enter cells and therefore agents are tested in cellular autophosphorylation assays, using Chinese hamster ovary cells transfected with one of several RTK genes.

PDGF receptors = assay: as above; format: cell-based; settings: transfected CHO cells
Description: as §1

[1] = test system: other RTKs including VEGF receptors; assay: standard tyrosine kinase assay, other RTKs; format: biochemical
C-Met = target: T1, C-Met (Homo sapiens, UniProt P08581); assay: standard tyrosine kinase assay: phosphorylation of poly(GluTyr) by GST-fusion kinase domain; format: biochemical; settings: kinase inhibitory profile
T1 construct: GST-fusion proteins of the kinase domains of several tyrosine kinase receptors; GST

Tie-2 = target: T2, Tie-2 (Homo sapiens, UniProt Q02763); assay: as above; format: biochemical; settings: kinase inhibitory profile
T2 construct: GST-fusion proteins of the kinase domains of several tyrosine kinase receptors; GST

Flt-1 = target: T3, Flt-1 (Homo sapiens, UniProt P17948); assay: as above; format: biochemical
T3 construct: GST-fusion proteins of the kinase domains of several tyrosine kinase receptors; GST
T3 sequence (P17948 827-1158 limits assumed): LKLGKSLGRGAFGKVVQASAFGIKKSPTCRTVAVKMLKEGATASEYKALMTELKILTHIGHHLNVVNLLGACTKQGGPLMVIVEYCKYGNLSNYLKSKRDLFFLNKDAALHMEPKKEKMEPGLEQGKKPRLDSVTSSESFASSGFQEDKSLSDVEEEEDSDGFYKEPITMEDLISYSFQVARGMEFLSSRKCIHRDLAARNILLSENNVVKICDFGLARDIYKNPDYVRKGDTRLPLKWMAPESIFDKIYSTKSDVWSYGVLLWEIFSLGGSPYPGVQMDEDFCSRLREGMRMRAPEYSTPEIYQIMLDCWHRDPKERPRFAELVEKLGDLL

Flk-1 = target: T4, Flk-1 (Mus musculus, UniProt P35918); assay: as above; format: biochemical; settings: kinase inhibitory profile, Table I
T4 construct: GST-fusion proteins of the kinase domains of several tyrosine kinase receptors; GST

[2] = test system: developing retinal vessels of neonatal mice; assay: drug treatment of mice during retinal vascular development; format: in vivo, C57/BL6J mice
Description: […] of newborn C57/BL6J mice are divided into treatment and control groups which received daily subcutaneous injections of 10 mg/kg of drug or vehicle, respectively. At P7 or P10, mice are anesthetized with ether, and perfused with 1 ml of phosphate-buffered saline containing 50 mg/ml of fluorescein-labeled dextran (2×10^6 average mw, Sigma, St. Louis, Mo.).. The eyes are removed and fixed for 1 hour in 10% phosphate-buffered formalin. The cornea and […] are removed and the entire retina is carefully dissected from the eyecup, radially cut from the edge of the retina to the equator in all 4 quadrants, and flat-mounted in Aquamount. with photoreceptors facing upward.

c-Kit = c-Kit (Homo sapiens, UniProt P10721); settings: transfected CHO cells
[3] = test system: mice with choroidal neovascularization; assay: laser-induced choroidal neovascularization in mice; settings: 50 mg/kg/day by gavage, two weeks after laser
insulin receptor = insulin receptor (Homo sapiens, UniProt P06213); assay: cellular autophosphorylation assay, Chinese hamster ovary cells transfected with RTK gene; settings: transfected CHO cells
Description: as §1

[4] = test system: retinal vessels in adult mice; assay: effect on retinal vessels in adult mice; format: in vivo, C57BL6J mice; settings: 50 mg/kg/day, 5 days
Description: Ischemic retinopathy is produced in C57/BL6J mice by the following method: Seven-day-old mice and their mothers are placed in an airtight incubator and exposed to an atmosphere of 75±3% oxygen for 5 days. Incubator temperature is maintained at 23±2° C., and oxygen is measured every 8 hours with an oxygen analyzer. After 5 days, the mice are removed from the incubator, placed in room air, and drug treatment is begun. […] Vehicle (control) or vehicle containing various concentrations of drug (volume =50 μl in neonates and 100 μl in adult mice) is placed in the stomach by gavage. After 5 days of treatment at P17, mice are sacrificed, eyes are rapidly removed and frozen in optimum cutting temperature embedding compound (OCT; Miles Diagnostics, Elkhart, IN) or fixed in 10% phosphate-buffered formalin and embedded in paraffin. Adult C57BL6J mice are also treated by gavage with drug or vehicle and after 5 days, they are sacrificed and their eyes are processed for frozen or paraffin sections. […] Slides are rinsed with 0.05M Tris-buffered saline, pH 7.6 (TBS) and incubated 2 hours at room temperature with biotinylated lectin. […] Some slides are counterstained with hematoxyfn and all are mounted with Cytoseal. […] The mean of the 13 measurements from each eye is used as a single experimental value.

[5] = test system: mice with ischemic retinopathy; assay: retinal neovascularization in mice with oxygen-induced ischemic retinopathy; settings: P17 mice
Description: Ischemic retinopathy is produced in C57/BL6J mice by the following method: Seven-day-old mice and their mothers are placed in an airtight incubator and exposed to an atmosphere of 75±3% oxygen for 5 days. Incubator temperature is maintained at 23±2° C., and oxygen is measured every 8 hours with an oxygen analyzer. After 5 days, the mice are removed from the incubator, placed in room air, and drug treatment is begun. […] Vehicle (control) or vehicle containing various concentrations of drug (volume =50 μl in neonates and 100 μl in adult mice) is placed in the stomach by gavage. After 5 days of treatment at P17, mice are sacrificed, eyes are rapidly removed and frozen in optimum cutting temperature embedding compound (OCT; Miles Diagnostics, Elkhart, IN) or fixed in 10% phosphate-buffered formalin and embedded in paraffin. Adult C57BL6J mice are also treated by gavage with drug or vehicle and after 5 days, they are sacrificed and their eyes are processed for frozen or paraffin sections.
Slides are rinsed with 0.05M Tris-buffered saline, pH 7.6 (TBS) and incubated 2 hours at room temperature with biotinylated lectin. […] Some slides are counterstained with hematoxyfn and all are mounted with Cytoseal.
The entire eye is sampled by staining sections roughly 50-60 μm apart, which provided 13 sections per eye for analysis. […] The mean of the 13 measurements from each eye is used as a single experimental value.

c-erbB2 = c-erbB2 (Homo sapiens, UniProt P04626); assay: cellular autophosphorylation assay, Chinese hamster ovary cells transfected with RTK gene; settings: transfected CHO cells
Sequence of c-erbB2 (P04626 23-1255): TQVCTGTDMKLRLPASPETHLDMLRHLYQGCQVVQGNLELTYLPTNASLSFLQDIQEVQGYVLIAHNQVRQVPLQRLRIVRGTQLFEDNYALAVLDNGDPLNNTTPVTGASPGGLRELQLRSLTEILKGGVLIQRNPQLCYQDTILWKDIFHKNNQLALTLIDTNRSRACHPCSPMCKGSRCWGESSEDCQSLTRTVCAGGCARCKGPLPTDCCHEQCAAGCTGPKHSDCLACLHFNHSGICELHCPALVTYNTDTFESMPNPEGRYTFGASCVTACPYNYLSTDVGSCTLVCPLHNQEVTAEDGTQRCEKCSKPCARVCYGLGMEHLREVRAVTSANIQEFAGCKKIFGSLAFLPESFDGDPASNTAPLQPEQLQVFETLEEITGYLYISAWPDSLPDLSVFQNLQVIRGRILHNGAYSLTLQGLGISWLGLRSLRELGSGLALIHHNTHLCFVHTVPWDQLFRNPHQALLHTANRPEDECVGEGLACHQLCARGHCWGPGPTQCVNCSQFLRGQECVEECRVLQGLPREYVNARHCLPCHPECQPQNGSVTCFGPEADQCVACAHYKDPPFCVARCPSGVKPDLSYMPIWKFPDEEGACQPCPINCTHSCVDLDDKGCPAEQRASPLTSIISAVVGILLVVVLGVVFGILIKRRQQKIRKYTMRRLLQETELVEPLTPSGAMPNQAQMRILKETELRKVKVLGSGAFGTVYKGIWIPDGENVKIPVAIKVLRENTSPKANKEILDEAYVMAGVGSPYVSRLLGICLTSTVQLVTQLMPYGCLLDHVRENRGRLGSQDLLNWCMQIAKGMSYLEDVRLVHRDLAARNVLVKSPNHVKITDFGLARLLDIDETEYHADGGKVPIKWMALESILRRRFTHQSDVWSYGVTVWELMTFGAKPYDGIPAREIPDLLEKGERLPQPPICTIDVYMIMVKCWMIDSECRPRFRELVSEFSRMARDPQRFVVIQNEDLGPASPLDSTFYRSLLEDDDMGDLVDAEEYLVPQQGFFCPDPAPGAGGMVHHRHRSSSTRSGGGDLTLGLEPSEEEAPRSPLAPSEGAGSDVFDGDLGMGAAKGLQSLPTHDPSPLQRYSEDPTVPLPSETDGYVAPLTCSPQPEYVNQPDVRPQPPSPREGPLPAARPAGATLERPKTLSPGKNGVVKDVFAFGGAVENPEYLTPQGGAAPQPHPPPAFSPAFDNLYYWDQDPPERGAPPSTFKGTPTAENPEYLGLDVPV
Description: as §1

T1 sequence (P08581 1078-1345 limits assumed): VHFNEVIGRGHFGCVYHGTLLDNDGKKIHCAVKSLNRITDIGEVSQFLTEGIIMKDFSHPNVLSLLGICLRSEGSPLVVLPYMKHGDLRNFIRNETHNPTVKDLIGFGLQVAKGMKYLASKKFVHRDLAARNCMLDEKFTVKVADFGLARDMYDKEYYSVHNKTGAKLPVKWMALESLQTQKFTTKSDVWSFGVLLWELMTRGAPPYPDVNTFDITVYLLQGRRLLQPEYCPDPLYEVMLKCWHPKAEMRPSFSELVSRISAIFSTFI
T2 sequence (Q02763 824-1096 limits assumed, species assumed): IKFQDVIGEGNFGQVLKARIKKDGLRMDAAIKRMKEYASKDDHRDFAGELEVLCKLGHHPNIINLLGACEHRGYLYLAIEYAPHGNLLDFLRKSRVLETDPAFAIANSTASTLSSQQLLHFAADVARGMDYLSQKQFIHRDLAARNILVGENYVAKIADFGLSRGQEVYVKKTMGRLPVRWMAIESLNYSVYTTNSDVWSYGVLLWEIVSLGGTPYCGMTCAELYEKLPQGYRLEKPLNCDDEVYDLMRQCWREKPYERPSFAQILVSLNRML
Sequence of c-Kit (P10721 26-976): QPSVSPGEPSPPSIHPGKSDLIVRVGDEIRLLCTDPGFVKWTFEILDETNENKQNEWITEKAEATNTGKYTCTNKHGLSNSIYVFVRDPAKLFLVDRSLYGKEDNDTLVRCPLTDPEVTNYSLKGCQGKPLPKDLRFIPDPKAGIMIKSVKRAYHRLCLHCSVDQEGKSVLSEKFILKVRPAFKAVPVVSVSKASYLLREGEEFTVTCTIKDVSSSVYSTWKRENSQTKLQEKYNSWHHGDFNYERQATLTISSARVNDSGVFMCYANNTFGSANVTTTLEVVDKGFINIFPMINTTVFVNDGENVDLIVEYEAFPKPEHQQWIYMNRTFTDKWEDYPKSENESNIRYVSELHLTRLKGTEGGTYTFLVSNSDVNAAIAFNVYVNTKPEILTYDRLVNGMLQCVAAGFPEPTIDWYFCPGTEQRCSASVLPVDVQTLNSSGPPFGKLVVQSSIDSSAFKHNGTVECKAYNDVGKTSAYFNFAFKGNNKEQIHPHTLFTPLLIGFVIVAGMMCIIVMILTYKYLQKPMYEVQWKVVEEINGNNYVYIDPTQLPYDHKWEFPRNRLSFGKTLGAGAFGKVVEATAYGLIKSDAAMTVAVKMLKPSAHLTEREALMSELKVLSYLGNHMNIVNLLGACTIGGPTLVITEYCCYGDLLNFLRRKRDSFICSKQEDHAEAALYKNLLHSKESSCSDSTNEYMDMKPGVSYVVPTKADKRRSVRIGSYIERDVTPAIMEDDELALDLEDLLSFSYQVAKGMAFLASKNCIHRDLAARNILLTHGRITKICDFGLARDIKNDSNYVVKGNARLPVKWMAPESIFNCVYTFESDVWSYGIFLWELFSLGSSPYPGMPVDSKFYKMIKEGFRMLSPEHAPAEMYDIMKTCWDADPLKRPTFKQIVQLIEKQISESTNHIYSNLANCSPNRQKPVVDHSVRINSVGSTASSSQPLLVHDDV
T4 sequence (P35918 832-1160 limits assumed): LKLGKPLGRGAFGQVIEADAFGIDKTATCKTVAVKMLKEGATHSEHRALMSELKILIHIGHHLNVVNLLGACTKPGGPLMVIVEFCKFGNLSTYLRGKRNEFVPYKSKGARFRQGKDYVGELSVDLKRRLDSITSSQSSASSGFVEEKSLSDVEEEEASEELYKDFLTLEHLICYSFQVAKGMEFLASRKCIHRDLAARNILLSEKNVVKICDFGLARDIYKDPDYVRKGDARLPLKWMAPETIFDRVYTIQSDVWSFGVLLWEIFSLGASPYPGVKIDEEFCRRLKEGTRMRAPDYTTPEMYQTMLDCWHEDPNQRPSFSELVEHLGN
Sequence of insulin receptor (P06213 28-1382, species assumed): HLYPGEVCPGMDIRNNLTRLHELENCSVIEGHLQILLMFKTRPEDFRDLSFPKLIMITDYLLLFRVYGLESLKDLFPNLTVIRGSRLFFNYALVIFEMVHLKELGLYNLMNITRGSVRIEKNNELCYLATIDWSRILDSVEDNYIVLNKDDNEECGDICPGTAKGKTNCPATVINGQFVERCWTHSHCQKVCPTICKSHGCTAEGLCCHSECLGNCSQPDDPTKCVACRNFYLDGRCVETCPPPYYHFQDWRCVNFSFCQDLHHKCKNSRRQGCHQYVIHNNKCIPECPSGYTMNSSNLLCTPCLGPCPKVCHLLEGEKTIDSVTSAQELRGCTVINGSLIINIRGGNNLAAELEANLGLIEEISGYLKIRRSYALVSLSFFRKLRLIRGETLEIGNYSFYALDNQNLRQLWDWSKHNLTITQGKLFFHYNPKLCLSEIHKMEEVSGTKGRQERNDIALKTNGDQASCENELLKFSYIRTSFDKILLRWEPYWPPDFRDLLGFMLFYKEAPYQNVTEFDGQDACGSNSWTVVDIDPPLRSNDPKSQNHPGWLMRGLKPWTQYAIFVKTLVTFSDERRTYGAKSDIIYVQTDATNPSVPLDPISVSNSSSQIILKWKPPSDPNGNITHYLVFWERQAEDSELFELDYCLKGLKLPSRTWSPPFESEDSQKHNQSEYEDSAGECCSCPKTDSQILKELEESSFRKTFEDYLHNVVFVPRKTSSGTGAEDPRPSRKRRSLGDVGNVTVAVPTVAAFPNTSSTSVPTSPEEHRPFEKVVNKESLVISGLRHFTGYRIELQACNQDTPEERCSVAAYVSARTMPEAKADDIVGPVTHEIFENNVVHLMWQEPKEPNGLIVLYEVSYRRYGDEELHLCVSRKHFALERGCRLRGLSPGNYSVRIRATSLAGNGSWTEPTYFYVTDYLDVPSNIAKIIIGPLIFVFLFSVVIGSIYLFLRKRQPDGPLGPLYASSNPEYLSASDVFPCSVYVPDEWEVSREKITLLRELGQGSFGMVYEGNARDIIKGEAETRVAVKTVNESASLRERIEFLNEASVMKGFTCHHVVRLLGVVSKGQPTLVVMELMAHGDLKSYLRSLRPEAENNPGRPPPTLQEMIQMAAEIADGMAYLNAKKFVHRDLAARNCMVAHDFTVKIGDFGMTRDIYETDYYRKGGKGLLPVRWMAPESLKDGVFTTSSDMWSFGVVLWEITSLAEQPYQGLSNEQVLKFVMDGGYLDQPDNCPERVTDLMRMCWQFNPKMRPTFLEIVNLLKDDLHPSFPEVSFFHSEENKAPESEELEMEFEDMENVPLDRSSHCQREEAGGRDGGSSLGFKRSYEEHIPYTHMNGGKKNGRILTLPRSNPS

Cc1ccc(NC(=O)c2ccc(CN3CCN(C)CC3)cc2)cc1Nc1nccc(-c2cccnc2)n1 [CGP 57 148B]
inhibition of autophosphorylation of VEGF receptors (VEGF receptors): poor inhibitors
inhibition of autophosphorylation of PDGF receptors (PDGF receptors): potent inhibitors
inhibitory activity on other RTKs including VEGF receptors [1]: little or no inhibitory activity

Cc1ccc(NC(=O)c2ccccc2)cc1Nc1nccc(-c2cccnc2)n1 [CGP 53 716]
inhibition of autophosphorylation of VEGF receptors (VEGF receptors): poor inhibitors
inhibition of autophosphorylation of PDGF receptors (PDGF receptors): potent inhibitors
IC50 (C-Met): > 10000 nM
IC50 (Tie-2): > 1000 nM
IC50 (Flt-1; kinase inhibitory profile): > 1000 nM
inhibitory activity on other RTKs including VEGF receptors [1]: little or no inhibitory activity
IC50 (Flk-1): > 1000 nM

Clc1ccc(Nc2nnc(Cc3ccncc3)c3ccccc23)cc1 [CGP 79787D]
inhibition of autophosphorylation of VEGF receptors (VEGF receptors): inhibits
inhibition of autophosphorylation of PDGF receptors (PDGF receptors): inhibits
extension of retinal vessels toward the periphery at P7 ([2]; 10 mg/kg daily injections from P0, P7): only extended about half way to the periphery
extension of superficial capillary bed at P10 ([2]; 10 mg/kg daily injections from P0, P10): has not yet reached the edge of the retina
inhibition of autophosphorylation of c-Kit (c-Kit): inhibits
appearance of overlying retinal vessels [3]: appeared normal
choroidal neovascularization at site of laser-induced rupture of Bruch's membrane [3]: very little if any choroidal neovascularization
inhibition of autophosphorylation of insulin receptor (insulin receptor): poor inhibitor
inhibition of phosphorylation by kinase domain of human VEGF receptor 1 (Flt-1): good inhibitor
total area of endothelial staining in the retina or appearance of retinal vessels versus vehicle [4]: no difference
decrease of total endothelial staining in the retina ([5]; 0.25 mg/kg): not statistically significant
staining in the inner nuclear layer ([5]; 0.25 mg/kg): no identifiable decrease
endothelial cell staining in the retina ([5]; 2.5 mg/kg twice a day): significantly less than vehicle-treated controls
endothelial staining in the inner nuclear layer ([5]; 2.5 mg/kg twice a day): some decrease
endothelial cell staining in inner nuclear layer and outer plexiform layer (deep capillary bed) ([5]; 25 mg/kg twice a day): striking absence
neovascularization (endothelial cells on the surface of the retina) ([5]; 25 mg/kg twice a day, gavage, 5 days): complete inhibition
endothelial cell staining within the retina ([5]; 25 mg/kg twice a day, gavage, 5 days, versus vehicle): dramatic decrease
inhibition of autophosphorylation of c-erbB2 (c-erbB2): poor inhibitor
